Measurements published in ChEMBL document CHEMBL4346692, “Anti-PqsR compounds as next-generation antibacterial agents against Pseudomonas aeruginosa: A review” (Eur J Med Chem, 2019).

Legend:
[1] = Binding affinity to Pseudomonas aeruginosa His6/Sumo-tagged PqsR C87 mutant expressed in Escherichia coli BL21 (DE3) […] cells by surface plasma resonance method
[2] = Agonist activity at Pseudomonas aeruginosa pqsA delta frame deletion mutant
[3] = Half life in rat hepatic microsomes at 1 uM in presence of NADPH by UPLC-MS/MS analysis; format: ADME, Microsome; settings: liver microsomes
[4] = Half life in human hepatic microsomes at 1 uM in presence of NADPH by UPLC-MS/MS analysis; format: ADME, Microsome; settings: liver microsomes
[5] = Antagonist activity at His6 -tagged Pseudomonas aeruginosa PqsR C87 mutant expressed in Escherichia coli BL21 (DE3) cells by surface plasma resonance method
[6] = molecular target: T1, 2-heptyl-4(1H)-quinolone synthase PqsD (Pseudomonas aeruginosa, UniProt A0A0C7ACN7); experiment: Inhibition of Pseudomonas aeruginosa PqsD
T1 sequence (A0A0C7ACN7 whole entry): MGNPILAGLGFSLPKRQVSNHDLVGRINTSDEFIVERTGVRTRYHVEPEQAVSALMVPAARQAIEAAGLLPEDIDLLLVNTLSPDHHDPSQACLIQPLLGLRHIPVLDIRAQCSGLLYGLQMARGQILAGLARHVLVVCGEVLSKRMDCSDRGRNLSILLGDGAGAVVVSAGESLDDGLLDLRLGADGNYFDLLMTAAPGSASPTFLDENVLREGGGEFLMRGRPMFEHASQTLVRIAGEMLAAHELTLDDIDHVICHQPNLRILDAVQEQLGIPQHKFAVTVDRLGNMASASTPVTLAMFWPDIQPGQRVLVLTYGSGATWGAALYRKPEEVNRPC

[7] = molecular target: T2, Transcriptional regulator MvfR (Pseudomonas aeruginosa PA14, UniProt A0A072ZLE6); experiment: Inhibition of Pseudomonas aeruginosa PqsR
T2 sequence (A0A072ZLE6 whole entry): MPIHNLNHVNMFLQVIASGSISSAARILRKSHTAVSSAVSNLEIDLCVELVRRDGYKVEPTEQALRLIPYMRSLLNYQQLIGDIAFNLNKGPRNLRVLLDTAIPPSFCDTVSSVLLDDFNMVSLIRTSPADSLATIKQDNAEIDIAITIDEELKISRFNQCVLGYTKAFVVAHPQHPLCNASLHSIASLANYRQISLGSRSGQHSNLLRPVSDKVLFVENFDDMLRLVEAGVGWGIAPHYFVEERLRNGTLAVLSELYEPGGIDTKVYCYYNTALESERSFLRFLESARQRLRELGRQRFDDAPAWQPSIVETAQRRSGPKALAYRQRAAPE

[8] = molecular target: T2, Transcriptional regulator MvfR; experiment: Antagonist activity at His6 -tagged Pseudomonas aeruginosa PqsR CBD domain expressed in Escherichia coli Rosetta 2 (DE3)
[9] = molecular target: T3, Transcriptional regulator MvfR (Pseudomonas aeruginosa PA14) (UniProt A0A072ZLE6); experiment: Inhibition of Pseudomonas aeruginosa PqsR relative to control; settings: concentration not given here
T3 sequence (whole entry): T2 sequence (A0A072ZLE6 whole entry)

Which Kd [1] does the source give for CCCCCCCc1cc(=O)c2cc(C(F)(F)F)ccc2[nH]1 here?
The Kd was 0.057 µM.

For CCCCCCCCCc1nc2cc(F)ccc2c(=O)n1OC, which EC50 [2] is on record?
Its EC50 is 2.2 µM.

What does the source list for O=CN1N=C(c2ccccc2)CC1c1cccc(Nc2ccnc3cc(Cl)ccc23)c1 (centres undefined)?
half-life at 1 µM [3]: < 30 min; half-life at 1 µM [4]: < 30 min

For CC(C)(C)c1ccc(C(=O)NO)cc1, which IC50 [5] is on record?
Its IC50 is 23.6 µM.

For CS(=O)(=O)c1nccc(-n2cnnn2)n1, which IC50 [6] is on record?
The IC50 was 21 µM.

And the IC50 [7]?
The IC50 was 15 µM.

With CCCCCCCCCc1nc2cc(F)c(F)cc2c(=O)n1N as the compound, how does the IC50 [8] read?
The IC50 was 1.2 µM.

For CCCCCCCc1[nH]c2ccccc2c(=O)c1O, which EC50 [2] is on record?
The EC50 was 1.9 µM.

Which IC50 [6] does the source give for CCCCCCS(=O)(=O)c1nccc(-n2ccnn2)n1 here?
Its IC50 is 1.7 µM.

What about the IC50 [7] of the same compound?
Its IC50 is 50 µM.

And the inhibition [9]?
Its inhibition is 47%.

With CCCCCCCCCc1nc2cc(F)ccc2c(=O)n1N as the compound, how does the IC50 [8] read?
Its IC50 is 3.9 µM.

With CCCCCCCCCc1nc2cc(Cl)ccc2c(=O)n1N as the compound, how does the IC50 [8] read?
The IC50 was 5 µM.
